Laboratory results taken from EP2067787A1, “Method for controlling insect populations” (Boehringer Ingelheim International GmbH, priority 2007, dated 2009).
Bridge positions count the residues as written; N and C are the ends. Square brackets hold non-standard residues; d marks the D form. Ends that are not written are not given here. Peptide text beside a SMILES is read from it. pGlu = O=C1CC[C@@H](C(=O)O)N1

Legend:
D. pseudoobscura SPR = test: CHO cell aequorin luminescence assay, insect SPR orthologue; assay type: cell-based; details: CHO cells expressing SPR, aequorin and Gαqi
A. aegypti SPR = test: as above; assay type: cell-based, Aedes aegypti; details: CHO cells expressing SPR, aequorin and Gαqi
B. mori SPR = test: as above; assay type: cell-based, Bombyx mori; details: CHO cells expressing SPR, aequorin and Gαqi
[1] = Saudan et al., 2002; cited from earlier work
CG16752 = target: T1, CG16752 (Drosophila melanogaster, UniProt Q8SWR3); test: CHO cell aequorin luminescence (Ca2+) assay; assay type: cell-based; details: for Ca^2+ responses: 0.1µM or 10µM SP
T1 construct: The relevant GPCRs are expressed from constructs prepared by cloning the entire open reading frame in a pcDNA3.1(+) vector; expressed in transfected cells; host or cells: CHO-K1
T1 sequence (Q8SWR3 1-435): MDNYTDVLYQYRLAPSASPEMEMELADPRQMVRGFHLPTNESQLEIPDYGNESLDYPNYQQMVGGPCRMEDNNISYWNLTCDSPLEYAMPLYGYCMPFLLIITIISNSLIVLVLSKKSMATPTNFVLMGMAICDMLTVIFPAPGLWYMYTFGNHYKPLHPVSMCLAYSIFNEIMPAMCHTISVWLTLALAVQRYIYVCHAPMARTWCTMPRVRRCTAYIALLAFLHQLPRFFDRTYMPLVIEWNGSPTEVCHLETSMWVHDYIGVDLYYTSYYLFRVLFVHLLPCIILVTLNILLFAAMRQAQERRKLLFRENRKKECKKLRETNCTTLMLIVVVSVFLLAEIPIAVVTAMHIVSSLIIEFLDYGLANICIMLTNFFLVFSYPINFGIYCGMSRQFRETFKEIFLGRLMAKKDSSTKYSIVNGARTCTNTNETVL

CG2114 = target: T2, CG2114 (Drosophila melanogaster, UniProt Q9VZW5); test: CHO cell aequorin luminescence assay, related GPCR; assay type: cell-based; details: 10µM peptide; CHO cells expressing CG2114 and aequorin
T2 construct: The relevant GPCRs are expressed from constructs prepared by cloning the entire open reading frame in a pcDNA3.1(+) vector; expressed in transfected cells; host or cells: CHO-K1
T2 sequence (Q9VZW5 1-549): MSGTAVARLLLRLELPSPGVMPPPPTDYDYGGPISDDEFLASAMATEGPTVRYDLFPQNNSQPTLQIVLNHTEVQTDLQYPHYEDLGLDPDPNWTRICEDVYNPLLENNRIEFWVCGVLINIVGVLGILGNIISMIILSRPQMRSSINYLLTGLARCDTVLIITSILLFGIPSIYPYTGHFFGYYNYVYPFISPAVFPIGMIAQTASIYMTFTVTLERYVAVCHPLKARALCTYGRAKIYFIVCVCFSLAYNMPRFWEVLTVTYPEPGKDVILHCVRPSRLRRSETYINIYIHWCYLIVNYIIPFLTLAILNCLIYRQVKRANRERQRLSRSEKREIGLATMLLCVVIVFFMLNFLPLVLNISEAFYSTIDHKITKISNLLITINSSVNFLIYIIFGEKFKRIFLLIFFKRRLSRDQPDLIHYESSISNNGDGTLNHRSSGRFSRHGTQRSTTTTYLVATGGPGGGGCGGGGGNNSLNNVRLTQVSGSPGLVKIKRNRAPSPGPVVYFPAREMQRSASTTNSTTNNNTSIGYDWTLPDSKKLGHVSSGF

CG8784 = test: CHO cell aequorin luminescence assay, related GPCR; assay type: cell-based, Drosophila; details: 10µM peptide; CHO cells expressing CG8784 and aequorin
virgin females = test: Receptivity of virgin females after SP injection; assay type: in vivo, Drosophila; details: assayed 5 h after injection
Helicoverpa armigera = details: Fan et al., 1999 and 2000; cited from earlier work
[2] = target: T3, Drosophila melanogaster sex peptide receptor (SPR), GPCR encoded by CG16752 (Drosophila melanogaster, UniProt Q8SWR3 1-435); test: cell-based or functional assay
T3 sequence: T1 sequence (Q8SWR3 1-435)

[3] = target: T4, SPR of Drosophila pseudoobscura (Drosophila pseudoobscura); test: cell-based or functional assay
T4 chain: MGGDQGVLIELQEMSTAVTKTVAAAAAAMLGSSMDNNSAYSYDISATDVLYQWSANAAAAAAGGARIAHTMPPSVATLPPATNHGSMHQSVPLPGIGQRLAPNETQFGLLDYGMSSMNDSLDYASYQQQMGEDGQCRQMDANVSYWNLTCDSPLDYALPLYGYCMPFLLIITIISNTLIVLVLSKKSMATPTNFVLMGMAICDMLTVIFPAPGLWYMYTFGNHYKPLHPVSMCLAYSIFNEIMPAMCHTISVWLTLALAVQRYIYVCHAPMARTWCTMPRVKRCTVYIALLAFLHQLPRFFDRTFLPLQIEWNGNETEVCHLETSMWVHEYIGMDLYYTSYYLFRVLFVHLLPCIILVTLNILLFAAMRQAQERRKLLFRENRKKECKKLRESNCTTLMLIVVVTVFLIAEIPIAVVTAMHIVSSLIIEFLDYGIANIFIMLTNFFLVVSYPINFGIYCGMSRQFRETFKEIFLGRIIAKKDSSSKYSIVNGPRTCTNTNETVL

SPR of Aedes aegypti = target: T5, SPR of Aedes aegypti (Aedes aegypti); test: cell-based or functional assay
T5 chain: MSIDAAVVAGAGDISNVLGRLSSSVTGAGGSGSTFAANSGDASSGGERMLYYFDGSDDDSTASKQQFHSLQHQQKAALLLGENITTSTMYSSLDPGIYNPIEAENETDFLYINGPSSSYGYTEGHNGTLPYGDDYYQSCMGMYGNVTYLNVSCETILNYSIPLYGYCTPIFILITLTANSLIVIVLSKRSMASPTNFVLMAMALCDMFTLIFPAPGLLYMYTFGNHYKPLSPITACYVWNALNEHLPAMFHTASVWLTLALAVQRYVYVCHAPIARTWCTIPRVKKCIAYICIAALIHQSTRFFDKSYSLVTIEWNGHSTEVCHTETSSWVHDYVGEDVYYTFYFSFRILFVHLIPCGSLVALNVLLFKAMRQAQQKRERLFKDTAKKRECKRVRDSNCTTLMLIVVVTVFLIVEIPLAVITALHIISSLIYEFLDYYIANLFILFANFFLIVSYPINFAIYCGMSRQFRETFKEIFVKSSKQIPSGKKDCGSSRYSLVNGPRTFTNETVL

SPR of Bombyx mori = target: T6, SPR of Bombyx mori (Bombyx mori); test: cell-based or functional assay
T6 chain: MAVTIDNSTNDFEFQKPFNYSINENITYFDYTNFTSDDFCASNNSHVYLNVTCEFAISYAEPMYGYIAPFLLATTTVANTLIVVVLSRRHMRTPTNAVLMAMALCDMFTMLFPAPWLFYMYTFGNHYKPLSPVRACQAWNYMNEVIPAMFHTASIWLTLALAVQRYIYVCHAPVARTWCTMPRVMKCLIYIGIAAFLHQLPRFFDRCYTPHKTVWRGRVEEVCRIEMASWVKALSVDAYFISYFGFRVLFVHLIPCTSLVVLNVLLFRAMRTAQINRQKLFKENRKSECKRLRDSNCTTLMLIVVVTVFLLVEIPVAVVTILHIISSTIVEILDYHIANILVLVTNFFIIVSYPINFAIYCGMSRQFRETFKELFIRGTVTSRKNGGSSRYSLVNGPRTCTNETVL

## CC[C@H](C)[C@H](NC(=O)[C@H](Cc1c[nH]c2ccccc12)NC(=O)[C@H](CCC(=O)O)NC(=O)[C@@H](NC(=O)[C@H](CC(=O)O)NC(=O)[C@H](CC(N)=O)NC(=O)[C@H](CCCNC(=N)N)NC(=O)[C@H](CC(=O)O)NC(=O)[C@@H]1CCC(=O)N1)[C@@H](C)O)C(=O)N[C@@H](CCC(N)=O)C(=O)N[C@@H](CO)C(=O)N[C@@H](CCC(N)=O)C(=O)N[C@@H](CCCCN)C(=O)N[C@@H](CC(=O)O)C(=O)N[C@@H](CCCNC(=N)N)C(=O)N[C@@H](CCC(=O)O)C(=O)N[C@@H](CCCCN)C(=O)N[C@@H](Cc1c[nH]c2ccccc12)C(=O)N[C@H]1CSSC[C@@H](C(=O)O)NC(=O)[C@H](CCCNC(=N)N)NC(=O)CNC(=O)CNC(=O)[C@H](CC(C)C)NC(=O)[C@H](Cc2ccc(O)cc2)NC(=O)[C@@H]2CCCN2C(=O)CNC(=O)[C@H](CC(C)C)NC(=O)[C@H](CC(N)=O)NC(=O)[C@H](CC(C)C)NC(=O)[C@H](CCCNC(=N)N)NC1=O [DUP99B] ([pGlu]DRNDTEWIQSQKDREKWCRLNLGPYLGGRC-OH; disulfide 19-31)
D. pseudoobscura SPR
  response of receptor to peptide: lower sensitivity
A. aegypti SPR
  response of receptor to peptide: lower sensitivity
B. mori SPR
  response of receptor to peptide: lower sensitivity
[1]
  post-mating responses: can induce the same post-mating responses as SP

## CC[C@H](C)[C@H](NC(=O)[C@@H]1C[C@@H](O)CN1C(=O)[C@H](Cc1ccccc1)NC(=O)[C@H](CCCCN)NC(=O)[C@@H](NC(=O)[C@@H]1C[C@@H](O)CN1C(=O)[C@H](CCCCN)NC(=O)[C@H](CCCNC(=N)N)NC(=O)[C@H](CC(N)=O)NC(=O)[C@H](Cc1c[nH]c2ccccc12)NC(=O)[C@@H]1CCCN1C(=O)[C@H](Cc1c[nH]c2ccccc12)NC(=O)[C@H](CCC(=O)O)NC(=O)[C@@H](N)Cc1c[nH]c2ccccc12)[C@@H](C)O)C(=O)N1C[C@H](O)C[C@H]1C(=O)N[C@@H](CO)C(=O)N1C[C@H](O)C[C@H]1C(=O)N[C@@H](CC(N)=O)C(=O)N1C[C@H](O)C[C@H]1C(=O)N[C@@H](CCCNC(=N)N)C(=O)N[C@@H](CC(=O)O)C(=O)N[C@@H](CCCCN)C(=O)N[C@@H](Cc1c[nH]c2ccccc12)C(=O)N[C@H]1CSSC[C@@H](C(=O)O)NC(=O)[C@H](CCCNC(=N)N)NC(=O)CNC(=O)CNC(=O)[C@H](Cc2c[nH]c3ccccc23)NC(=O)[C@H](C)NC(=O)[C@@H]2CCCN2C(=O)CNC(=O)[C@H](CC(C)C)NC(=O)[C@H](CC(N)=O)NC(=O)[C@H](CC(C)C)NC(=O)[C@H](CCCNC(=N)N)NC1=O [SP]
CG16752; cotransfected chimeric G protein Gαqi
  Ca^2+ responses: robust Ca^2+ responses
CG16752; cotransfected chimeric G protein Gαqo
  Ca^2+ responses: robust Ca^2+ responses
CG16752; cotransfected chimeric G protein Gαqs
  Ca^2+ responses: not Gαqs
CG16752; no additional G protein (endogenous Gαq/11), concentrations as high as 10µM
  luminescence response: very weak response
D. pseudoobscura SPR
  EC50: 4.3 nM
A. aegypti SPR
  EC50: 167 nM
B. mori SPR
  EC50: 63 nM
CG2114
  sensitivity to peptide ligand: not to SP
CG8784
  sensitivity to peptide ligand: not to SP
Virgin females; Df(1)Exel6234 homozygous virgins, 12pmol SP injected
  receptivity to naive males: remaine receptive
Virgin females; wild-type virgins, 12pmol SP injected into haemolymph
  receptivity to naive males: unreceptive
Helicoverpa armigera
  post-mating responses: can induce post-mating responses

## pQLQSNGEPAYRVRTPRLa ([pGlu]LQSNGEPAYRVRTPRL-NH2; SMILES CC(C)C[C@H](NC(=O)[C@H](CCCNC(=N)N)NC(=O)[C@@H]1CCCN1C(=O)[C@@H](NC(=O)[C@H](CCCNC(=N)N)NC(=O)[C@@H](NC(=O)[C@H](CCCNC(=N)N)NC(=O)[C@H](Cc1ccc(O)cc1)NC(=O)[C@H](C)NC(=O)[C@@H]1CCCN1C(=O)[C@H](CCC(=O)O)NC(=O)CNC(=O)[C@H](CC(N)=O)NC(=O)[C@H](CO)NC(=O)[C@H](CCC(N)=O)NC(=O)[C@H](CC(C)C)NC(=O)[C@@H]1CCC(=O)N1)C(C)C)[C@@H](C)O)C(N)=O) [hugin-γ, ligand of CG8784]
CG16752; 10µM peptide, co-transfected with Gαqi
  activation of receptor by peptide ligand: Neither of these peptides activates
CG8784
  sensitivity to peptide ligand: confer sensitivity

## [pGlu]DRNDTEWIQSQKDREKWCRLNLGPYLGGRC (disulfide 19-31 (inferred)) [synthetic DUP99B]
[2]
  EC50, dose-response of luminescence in CHO cells expressing CG16752, aequorin and Gαqi: 7.3 nM

B1: synthetic sex peptide (SP) of Drosophila melanogaster (peptide)
peptide: WEWPWNRKPTKFPIPSPNPRDKWCRLNLGPAWGGRC
modifications: disulfide 24-36 (inferred); also: hydroxyproline at some P residues, places not given here
[2]
  EC50, dose-response of luminescence in CHO cells expressing CG16752, aequorin and Gαqi: 1.3 nM
[3]
  EC50, dose-response of luminescence in CHO cells expressing the SPR, aequorin and Gαqi: 4.3 nM
SPR of Aedes aegypti
  EC50, dose-response of luminescence in CHO cells expressing the SPR, aequorin and Gαqi: 167 nM
SPR of Bombyx mori
  EC50, dose-response of luminescence in CHO cells expressing the SPR, aequorin and Gαqi: 63 nM
